# Assays:
# [1] = tested on: LNCaP prostate cancer cell line; test: Crystal Violet viability assay, LNCaP; format: cell-based, human; details: for ABSORBANCE: LNCaP, 0.1 μg/mL cisplatin
# Excerpt: (§1) Three different viability assays were chosen to complement each other and yielded results dependent on concentration and cell line: the Methyl Tetrazolium dye assay, the Sulforhodamine B fluorescent dye assay, and the Crystal Violet dye assay.
# (§2) The Sulforhodamine B and Crystal Violet assays provide information about protein and were used to complement the Methyl-Tetrazolium dye assay. […] It is used for the quantification of cellular proteins of cultured cells. The assay using Crystal Violet, a dye that binds electrostatically to proteins and stains DNA, provides a reliable, simple assay for measuring viability of cells.
# (§3) The Methyl Tetrazolium, Sulforhodamine B, and Crystal Violet assays were used to assess cell viabilities. The incubation times were 24 hours, 48 hours, and 72 hours. The Nerium oleander extract Anvirzel™ (a hot water extract of oleander obtained from Salud Integral, Honduras) was tested in concentrations ranging from 0.01 ng/mL to 10 ng/mL.
# (§4) Cells were detached by trypsinization (Trypsin-0.25% EDTA, Invitrogen, 25200-072) during the logarithmic phase of culture growth and plated in 96-well plates (18.000 cells/well) (Corning, Costar 359) in a final volume of 200 μl of medium per well. […] The absorbance was measured after 24 hours, 48 hours, and 72 hours of incubation.
# For the Crystal Violet assay, the medium was removed from the 96-well plates, the plates rinsed with PBS (Sigma, P3813) and then the cells were […] by the addition of 10% formalin (MERCK, 1.04003.2500) for 20 minutes at RT. Formalin was removed and 0.25% aqueous crystal violet (Sigma, HT901), dissolved in water, was added for 10 minutes at RT. Unbound Crystal Violet was rinsed by washing with water and finally 33% acetic acid was added to dissolve the dye.
# (§5) The optical density of each plate was measured on a μQuant spectrophotometer and the data were analyzed with Gen5 software (μQuant Biomolecular Spectrophotometer MQX200 and Gen5™ Microplate Data Collection & Analysis software, BioTek® Instruments. Inc, April 2008). Absorbance was measured at 570 nm for all assays and a second wavelength was measured in order to subtract noise. For the Methyl-Tetrazolium assay this second wavelength was 630 nm and for the Sulforhodamine B and Crystal Violet assays it was 690 nm.
# [2] = tested on: COLO699N lung cancer cell line; test: Sulforhodamine B viability assay, COLO699N; format: cell-based, human; design: key to SRB Average: absorbance (optical density) at 570 nm, second wavelength subtracted; details: for Average SRB 24 h / Average SRB 48 h / Average SRB 72 h: COLO699N Run 1; for ABSORBANCE: COLO699N, 0.1 μg/mL cisplatin
# Excerpt: as §1, §2, §3, §4
# For the Sulforhodamine B assay, 96-well plates were fixed by 10% trichloroacetic acid (Fluka, 91228) and were incubated at 4° C. for 1 hour. Afterwards, plates were rinsed with water and cells were stained with 0.4% Sulforhodamine B (Sigma, 341738), dissolved in 1% acetic acid (Carlo Ebra, 401422) for 15 minutes at room temperature (RT). The unbound stain was washed twice with 1% acetic acid. Finally, 10 mM Tris Buffer pH 10.5 (Sigma, T6791) was added to dissolve the dye.
# as §5
smiles,measurement,setting,value
N.N.[Cl][Pt][Cl] [cisplatin],CVE Average,"[1]; LNCaP Run 3, 24 h, 0.1 μg/ml CDDP",0.425
same,CVE Average,"[1]; LNCaP Run 3, 24 h, 1 μg/ml CDDP",0.152
same,CVE Average,"[1]; LNCaP Run 3, 24 h, 10 μg/ml CDDP",0.171
same,CVE Average,"[1]; LNCaP Run 3, 24 h, 100 μg/ml CDDP",0.133
same,CVE Average,"[1]; LNCaP Run 3, 48 h, 0.1 μg/ml CDDP",0.387
same,CVE Average,"[1]; LNCaP Run 3, 48 h, 1 μg/ml CDDP",0.24
same,CVE Average,"[1]; LNCaP Run 3, 48 h, 10 μg/ml CDDP",0.267
same,CVE Average,"[1]; LNCaP Run 3, 48 h, 100 μg/ml CDDP",0.3
same,CVE Average,"[1]; LNCaP Run 3, 72 h, 0.1 μg/ml CDDP",0.619
same,CVE Average,"[1]; LNCaP Run 3, 72 h, 1 μg/ml CDDP",0.312
same,CVE Average,"[1]; LNCaP Run 3, 72 h, 10 μg/ml CDDP",0.303
same,CVE Average,"[1]; LNCaP Run 3, 72 h, 100 μg/ml CDDP",0.289
same,ABSORBANCE,[1]; 48 h,0.408
same,ABSORBANCE,[1]; 72 h,0.448
same,Average CVE 24 h,"[1]; Run 1, 0.1 μg/ml CDDP",0.418
same,Average CVE 48 h,"[1]; Run 1, 0.1 μg/ml CDDP",0.541
same,Average CVE 72 h,"[1]; Run 1, 0.1 μg/ml CDDP",0.684
same,Average CVE 24 h,"[1]; Run 1, 1 μg/ml CDDP",0.327
same,Average CVE 48 h,"[1]; Run 1, 1 μg/ml CDDP",0.252
same,Average CVE 72 h,"[1]; Run 1, 1 μg/ml CDDP",0.558
same,Average CVE 24 h,"[1]; Run 1, 10 μg/ml CDDP",0.289
same,Average CVE 48 h,"[1]; Run 1, 10 μg/ml CDDP",0.467
same,Average CVE 72 h,"[1]; Run 1, 10 μg/ml CDDP",0.423
same,Average CVE 24 h,"[1]; Run 1, 100 μg/ml CDDP",0.359
same,Average CVE 48 h,"[1]; Run 1, 100 μg/ml CDDP",0.306
same,Average CVE 72 h,"[1]; Run 1, 100 μg/ml CDDP",0.398
same,Average CVE 24 h,"[1]; Run 2, 0.1 μg/ml CDDP",0.463
same,Average CVE 48 h,"[1]; Run 2, 0.1 μg/ml CDDP",0.408
same,Average CVE 72 h,"[1]; Run 2, 0.1 μg/ml CDDP",0.448
same,Average CVE 24 h,"[1]; Run 2, 1 μg/ml CDDP",0.227
same,Average CVE 48 h,"[1]; Run 2, 1 μg/ml CDDP",0.29
same,Average CVE 72 h,"[1]; Run 2, 1 μg/ml CDDP",0.522
same,Average CVE 24 h,"[1]; Run 2, 10 μg/ml CDDP",0.278
same,Average CVE 48 h,"[1]; Run 2, 10 μg/ml CDDP",0.207
same,Average CVE 72 h,"[1]; Run 2, 10 μg/ml CDDP",0.299
same,Average CVE 24 h,"[1]; Run 2, 100 μg/ml CDDP",0.276
same,Average CVE 48 h,"[1]; Run 2, 100 μg/ml CDDP",0.237
same,Average CVE 72 h,"[1]; Run 2, 100 μg/ml CDDP",0.214
same,Average SRB 24 h,[2]; 0.1 μg/ml CDDP,1.552
same,Average SRB 48 h,"[2]; 0.1 μg/ml CDDP, 48 h",1.317
same,Average SRB 72 h,"[2]; 0.1 μg/ml CDDP, 72 h",1.658
same,Average SRB 24 h,[2]; 1 μg/ml CDDP,1.526
same,Average SRB 48 h,"[2]; 1 μg/ml CDDP, 48 h",1.388
same,Average SRB 72 h,"[2]; 1 μg/ml CDDP, 72 h",1.152
same,Average SRB 24 h,[2]; 10 μg/ml CDDP,1.384
same,Average SRB 48 h,"[2]; 10 μg/ml CDDP, 48 h",1.524
same,Average SRB 72 h,"[2]; 10 μg/ml CDDP, 72 h",0.922
same,Average SRB 24 h,[2]; 100 μg/ml CDDP,1.085
same,Average SRB 48 h,"[2]; 100 μg/ml CDDP, 48 h",1.452
same,Average SRB 72 h,"[2]; 100 μg/ml CDDP, 72 h",1.114
same,ABSORBANCE,[2]; 48 h,1.975
same,ABSORBANCE,[2]; 72 h,2.145
same,SRB Average,"[2]; Run 2, 24 h, 0.1 μg/ml CDDP",1.709
same,SRB Average,"[2]; Run 2, 24 h, 1 μg/ml CDDP",1.61
same,SRB Average,"[2]; Run 2, 24 h, 10 μg/ml CDDP",1.523
same,SRB Average,"[2]; Run 2, 24 h, 100 μg/ml CDDP",1.354
same,SRB Average,"[2]; Run 2, 48 h, 0.1 μg/ml CDDP",1.975
same,SRB Average,"[2]; Run 2, 48 h, 1 μg/ml CDDP",1.253
same,SRB Average,"[2]; Run 2, 48 h, 10 μg/ml CDDP",1.27
same,SRB Average,"[2]; Run 2, 48 h, 100 μg/ml CDDP",1.256
same,SRB Average,"[2]; Run 2, 72 h, 0.1 μg/ml CDDP",2.145
same,SRB Average,"[2]; Run 2, 72 h, 1 μg/ml CDDP",1.256
same,SRB Average,"[2]; Run 2, 72 h, 10 μg/ml CDDP",1.524
same,SRB Average,"[2]; Run 2, 72 h, 100 μg/ml CDDP",1.312
same,SRB Average,"[2]; Run 3, 24 h, 0.1 μg/ml CDDP",1.99
same,SRB Average,"[2]; Run 3, 24 h, 1 μg/ml CDDP",1.839
same,SRB Average,"[2]; Run 3, 24 h, 10 μg/ml CDDP",1.527
same,SRB Average,"[2]; Run 3, 24 h, 100 μg/ml CDDP",1.387
same,SRB Average,"[2]; Run 3, 48 h, 0.1 μg/ml CDDP",1.978
same,SRB Average,"[2]; Run 3, 48 h, 1 μg/ml CDDP",1.092
same,SRB Average,"[2]; Run 3, 48 h, 10 μg/ml CDDP",1.259
same,SRB Average,"[2]; Run 3, 48 h, 100 μg/ml CDDP",1.218
same,SRB Average,"[2]; Run 3, 72 h, 0.1 μg/ml CDDP",1.946
same,SRB Average,"[2]; Run 3, 72 h, 1 μg/ml CDDP",1.249
same,SRB Average,"[2]; Run 3, 72 h, 10 μg/ml CDDP",1.014
same,SRB Average,"[2]; Run 3, 72 h, 100 μg/ml CDDP",1.033

# Source: patent publication US20190343908A1, “Therapeutic Combination for the Treatment of Cancer” (Nerium Biotechnology Inc., priority 2011, published 2019)
